From EP1964555A1, “PHARMACEUTICAL CO[…] INHIBIT THE REUPTAKE OF NORADRENALINE, DOPAMINE AND SEROTONIN, WHICH ARE COMBINED WITH AN AMINO ACID FOR THE TREATMENT OF OBESITY AND OVERWEIGHT” (Espinosa Abdala, Leopoldo de Jesús, priority 2005, dated 2007)

Key:
human plasmatic proteins = conditions: plasma; cited from earlier work
[1] = cited from earlier work; for plasma rates: after administration of indicated Sibutramine therapeutic doses; for time for plasma concentrations to reach the stable state: during treatment; for detection in urine: in vivo; for maximum plasma concentration [Tmax]: time after administration; for effect of food on Tmax / effect of food on maximum concentrations: with food
[2] = Example 2: randomized, double-blind, crossover study in patients with severe obesity and dyslipidemia; type: in vivo; conditions: 4 weeks per treatment
Experimental: A randomized, double-blind and crossover study was made in order to assess the reliability and effectiveness of the combination Sibutramine-Carnitine in patients with obesity and/or overweight suffering from dyslipidemia. 80 individuals were included in the study with a BMI higher than 35 kg/m^2 diagnosed with severe obesity, with alteration in the profile of lipids which total cholesterol figures was higher than 200 mg/dl.
Combined Sibutramine-carnitine was administered for 4 weeks and subsequently sibutramine alone and carnitine alone for another 4 weeks.

[3] = single dose, within a 15-day period

Row | SMILES | attachment to human plasmatic proteins (human plasmatic proteins) | plasma rates [1] | time for plasma concentrations to reach the stable state [1] | detection in urine [1] | maximum plasma concentration [Tmax] [1] | effect of food on Tmax [1] | effect of food on maximum concentrations [1] | reduction of BMI ([2]; BMI higher than 35 kg/m^2, total cholesterol higher than 200 mg/dl, combination compared to sibutramine alone) | cholesterol and triglycerides levels ([2]; compared to the admission visit) | share expelled through urine [1, 3] | share of dose expelled through urine and feces [1, 3]
1 | CC(C)CC(N)C1(c2ccc(Cl)cc2)CCC1 (stereo not shown) [M2, di-desmetil-sibutramina] | 94% | 12% | four | not detected | ~4 h | delay | decreases | – | – | – | –
2 | CNC(CC(C)C)C1(c2ccc(Cl)cc2)CCC1 (stereo not shown) [M1, mono-desmetilsibutramina] | 94% | 6% | four | not detected | ~3 h | delay | decreases | – | – | – | –
3 | C[N+](C)(C)CC(O)CC(=O)[O-] (stereo not shown) [carnitine, Carnitine] | – | – | – | – | – | – | – | no significant differences | – | – | –
4 | CC(C)CC(N(C)C)C1(c2ccc(Cl)cc2)CCC1 (stereo not shown) [Sibutramine] | 97% | 3% | – | not detected | 1.2 h | – | – | – | frank progressive reduction | 77% | About 85%
